Results published in US6441020B1, “Protein kinase C modulators. W” (priority 1995, dated 2002).

Key:
Raji cells = settings: Irie and Koshimizu 1988; cited from earlier work
[1] = tested on: protein kinase C preparation; settings: Irie and Koshimizu 1988; cited from earlier work
protein kinase C γ = target: T1, protein kinase C γ (Bos taurus, UniProt P05128); assay: [3H]PDBu receptor binding assay, protein kinase C γ
T1 construct: Successful full-length expression of each isotype was confirmed by immunoblotting; made in house; host or cells: Sf9 or Sf158 insect cells (baculovirus)
Source text: (§1) Recombinant protein kinase Cα, β1, γ, ε, η, θ and μ were obtained as crude cell preparations as follows. The protein kinase C isotypes were expressed in Sf9 or Sf158 insect cells using recombinant baculoviruses as described (Patel and Stabel, 1989; Stabel, Schaap and Parker, 1991; Johannes et al., 1994). In the case of the θ isotype, human protein kinase Cθ was cloned in the plasmid vector pFlag-Mac and the protein expressed in E. coli strain DH5. Successful full-length expression of each isotype was confirmed by immunoblotting of infected insect cell or E. coli lysates with isotype-specific antibodies (Marais and Parker, 1989) as described (Liyange et al, 1992). Sf9 or Sf158 cells were infected with recombinant baculovirus isolates containing the specified protein kinase C isotype cDNAs (Parker et al, 1986; Coussens et al, 1986) or a non-protein kinase C-related adenovirus E1 a gene (Patel and Jones, 1990). After 3 days infected and uninfected control cells were collected by centrifugation at 600 RCF for 15 min and frozen. […]
(§2) The assay was carried out in 0.5 mL polypropylene centrifuge tubes. […] Specific and nonspecific binding values were then determined as described (Driedger and Blumberg, 1980b). […]

protein kinase C ε = target: T2, protein kinase C ε (Homo sapiens, UniProt Q02156); assay: [3H]PDBu receptor binding assay, protein kinase C ε
T2 construct: Successful full-length expression of each isotype was confirmed by immunoblotting; made in house; host or cells: Sf9 or Sf158 insect cells (baculovirus)
T2 sequence (Q02156 1-737): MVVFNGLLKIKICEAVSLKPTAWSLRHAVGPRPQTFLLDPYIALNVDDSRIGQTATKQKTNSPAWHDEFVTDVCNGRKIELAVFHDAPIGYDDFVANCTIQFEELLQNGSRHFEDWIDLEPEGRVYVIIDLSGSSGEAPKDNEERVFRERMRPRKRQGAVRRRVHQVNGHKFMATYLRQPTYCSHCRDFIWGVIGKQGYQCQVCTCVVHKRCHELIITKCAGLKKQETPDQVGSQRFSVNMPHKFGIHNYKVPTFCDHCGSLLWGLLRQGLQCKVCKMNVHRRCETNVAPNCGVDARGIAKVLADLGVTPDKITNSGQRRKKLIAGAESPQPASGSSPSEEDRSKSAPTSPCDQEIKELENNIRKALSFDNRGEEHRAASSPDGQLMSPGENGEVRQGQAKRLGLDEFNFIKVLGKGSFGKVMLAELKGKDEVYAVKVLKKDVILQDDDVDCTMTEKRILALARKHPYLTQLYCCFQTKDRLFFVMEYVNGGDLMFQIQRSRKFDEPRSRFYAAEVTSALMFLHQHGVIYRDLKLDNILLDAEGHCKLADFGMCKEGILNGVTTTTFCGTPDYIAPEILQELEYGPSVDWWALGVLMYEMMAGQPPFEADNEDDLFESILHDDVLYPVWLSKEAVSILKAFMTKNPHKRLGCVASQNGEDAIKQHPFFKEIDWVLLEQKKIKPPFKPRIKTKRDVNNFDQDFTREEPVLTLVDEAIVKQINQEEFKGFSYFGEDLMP
Source text: as §1, §2

protein kinase C δ = target: T3, protein kinase C δ (Homo sapiens, UniProt Q05655); assay: [3H]PDBu receptor binding assay, protein kinase C δ
T3 construct: made in house
T3 sequence (Q05655 whole entry): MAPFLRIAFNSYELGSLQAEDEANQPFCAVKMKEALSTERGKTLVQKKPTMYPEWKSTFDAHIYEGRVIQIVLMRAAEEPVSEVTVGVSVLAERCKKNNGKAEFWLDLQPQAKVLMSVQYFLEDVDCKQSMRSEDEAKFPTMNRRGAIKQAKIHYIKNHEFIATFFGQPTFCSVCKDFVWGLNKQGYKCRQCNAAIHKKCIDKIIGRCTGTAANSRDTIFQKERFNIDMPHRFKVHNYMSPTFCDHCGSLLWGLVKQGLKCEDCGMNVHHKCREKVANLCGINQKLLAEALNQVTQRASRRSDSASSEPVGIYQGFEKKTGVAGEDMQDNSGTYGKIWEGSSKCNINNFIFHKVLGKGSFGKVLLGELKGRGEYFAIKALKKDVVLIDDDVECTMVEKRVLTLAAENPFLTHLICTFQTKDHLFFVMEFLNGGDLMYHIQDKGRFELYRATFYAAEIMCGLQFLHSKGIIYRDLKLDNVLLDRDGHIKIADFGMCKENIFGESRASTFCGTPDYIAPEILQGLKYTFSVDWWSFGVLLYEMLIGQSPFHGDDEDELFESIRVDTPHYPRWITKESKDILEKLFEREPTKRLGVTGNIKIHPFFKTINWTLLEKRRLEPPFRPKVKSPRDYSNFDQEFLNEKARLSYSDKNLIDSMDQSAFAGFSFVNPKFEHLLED

protein kinase Cα = target: T4, protein kinase Cα (Bos taurus, UniProt P04409); assay: [3H]PDBu receptor binding assay, protein kinase C α
T4 construct: Successful full-length expression of each isotype was confirmed by immunoblotting; made in house; host or cells: Sf9 or Sf158 insect cells (baculovirus)
Source text: as §1, §2

[2] = tested on: phorbol 12-myristate 13-acetate induced ear inflammation/erythema; assay: Mouse ear anti-inflammatory test against phorbol 12-myristate 13-acetate; assay type: in vivo, mice
Description: Method: A stock solution of 300 pmoles of the standard inflammatory compound phorbol 12-myristate 13-acetate per 5 μL acetone was prepared. This solution was used to prepare ten-fold dilutions of N^1,14-O-digeranyl-(9S,12S)-indolactam V, prepared as in Example 8, covering concentrations of the latter ranging from 3,500 to 350,000 pmoles per 5 μL.

protein kinase C μ = target: T5, protein kinase C μ (Homo sapiens, UniProt Q15139); assay: [3H]PDBu receptor binding assay, protein kinase C μ
T5 construct: Successful full-length expression of each isotype was confirmed by immunoblotting; made in house; host or cells: Sf9 or Sf158 insect cells (baculovirus)
T5 sequence (Q15139 1-912): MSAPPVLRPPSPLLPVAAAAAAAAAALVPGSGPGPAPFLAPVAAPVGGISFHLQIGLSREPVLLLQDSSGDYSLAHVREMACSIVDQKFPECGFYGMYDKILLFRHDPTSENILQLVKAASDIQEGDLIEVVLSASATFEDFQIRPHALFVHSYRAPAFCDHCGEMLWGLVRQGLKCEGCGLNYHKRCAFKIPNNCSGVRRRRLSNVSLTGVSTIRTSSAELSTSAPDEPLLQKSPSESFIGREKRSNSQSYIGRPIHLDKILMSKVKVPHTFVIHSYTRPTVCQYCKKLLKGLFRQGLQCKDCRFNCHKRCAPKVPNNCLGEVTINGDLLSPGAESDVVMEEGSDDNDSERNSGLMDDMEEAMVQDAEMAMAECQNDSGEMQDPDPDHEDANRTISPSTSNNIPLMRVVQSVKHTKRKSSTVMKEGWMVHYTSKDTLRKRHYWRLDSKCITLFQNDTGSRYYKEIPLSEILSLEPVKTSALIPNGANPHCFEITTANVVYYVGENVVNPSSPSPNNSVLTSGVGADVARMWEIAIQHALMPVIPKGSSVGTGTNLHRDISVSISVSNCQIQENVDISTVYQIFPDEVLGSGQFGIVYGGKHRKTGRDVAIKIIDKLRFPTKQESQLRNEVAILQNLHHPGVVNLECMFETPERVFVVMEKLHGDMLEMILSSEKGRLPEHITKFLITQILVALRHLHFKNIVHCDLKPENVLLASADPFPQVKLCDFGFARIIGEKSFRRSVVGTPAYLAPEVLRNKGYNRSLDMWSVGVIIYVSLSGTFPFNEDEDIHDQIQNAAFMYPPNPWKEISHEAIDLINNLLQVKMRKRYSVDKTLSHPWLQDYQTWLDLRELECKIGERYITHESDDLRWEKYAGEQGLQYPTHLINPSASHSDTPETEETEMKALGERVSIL
Source text: as §1, §2

human protein kinase Cθ = target: T6, human protein kinase Cθ (Homo sapiens, UniProt Q04759); assay: [3H]PDBu receptor binding assay, protein kinase C θ
T6 construct: Successful full-length expression of each isotype was confirmed by immunoblotting; FLAG (from vector pFlag-Mac); made in house; host or cells: E. coli strain DH5
T6 sequence (Q04759 whole entry): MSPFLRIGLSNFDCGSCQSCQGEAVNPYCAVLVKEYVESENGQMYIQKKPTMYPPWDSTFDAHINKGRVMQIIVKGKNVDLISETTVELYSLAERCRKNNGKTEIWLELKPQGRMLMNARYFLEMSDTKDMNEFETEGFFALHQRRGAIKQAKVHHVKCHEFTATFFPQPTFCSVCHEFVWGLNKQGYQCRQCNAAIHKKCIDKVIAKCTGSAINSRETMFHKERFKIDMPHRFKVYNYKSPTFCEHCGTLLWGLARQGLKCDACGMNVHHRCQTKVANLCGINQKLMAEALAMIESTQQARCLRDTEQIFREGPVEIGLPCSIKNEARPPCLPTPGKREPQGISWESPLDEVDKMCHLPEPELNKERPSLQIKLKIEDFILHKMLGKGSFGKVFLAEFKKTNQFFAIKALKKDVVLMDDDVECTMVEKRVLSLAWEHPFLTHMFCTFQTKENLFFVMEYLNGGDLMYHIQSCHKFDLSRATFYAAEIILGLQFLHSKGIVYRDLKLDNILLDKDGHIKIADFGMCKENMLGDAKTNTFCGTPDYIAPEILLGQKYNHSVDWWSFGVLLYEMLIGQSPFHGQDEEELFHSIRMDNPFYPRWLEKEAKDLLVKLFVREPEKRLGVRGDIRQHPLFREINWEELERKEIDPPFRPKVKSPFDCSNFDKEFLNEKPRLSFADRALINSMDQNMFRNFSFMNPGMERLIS
Source text: as §1, §2

protein kinase C η = target: T7, protein kinase C η (Homo sapiens, UniProt P24723); assay: [3H]PDBu receptor binding assay, protein kinase C η
T7 construct: Successful full-length expression of each isotype was confirmed by immunoblotting; made in house; host or cells: Sf9 or Sf158 insect cells (baculovirus)
T7 sequence (P24723 whole entry): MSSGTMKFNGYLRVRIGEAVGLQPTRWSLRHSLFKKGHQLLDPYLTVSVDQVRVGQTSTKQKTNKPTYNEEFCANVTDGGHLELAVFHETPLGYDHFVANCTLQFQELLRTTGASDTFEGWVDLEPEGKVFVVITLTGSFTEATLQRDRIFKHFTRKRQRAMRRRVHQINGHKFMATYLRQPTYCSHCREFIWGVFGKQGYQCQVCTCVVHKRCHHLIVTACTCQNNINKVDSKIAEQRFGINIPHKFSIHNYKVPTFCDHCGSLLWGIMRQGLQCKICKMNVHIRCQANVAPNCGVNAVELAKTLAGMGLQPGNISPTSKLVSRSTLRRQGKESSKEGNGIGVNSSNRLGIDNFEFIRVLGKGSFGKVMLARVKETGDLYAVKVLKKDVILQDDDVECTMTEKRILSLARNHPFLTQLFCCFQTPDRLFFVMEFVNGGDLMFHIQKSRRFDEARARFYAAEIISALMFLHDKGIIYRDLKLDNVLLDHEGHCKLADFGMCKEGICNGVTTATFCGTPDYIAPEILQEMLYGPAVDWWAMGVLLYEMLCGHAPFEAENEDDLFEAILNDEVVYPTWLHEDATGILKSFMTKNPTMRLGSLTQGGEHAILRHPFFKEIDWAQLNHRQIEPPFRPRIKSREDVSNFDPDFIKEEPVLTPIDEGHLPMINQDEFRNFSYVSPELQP
Source text: as §1, §2

CCCCOC[C@@H]1Cc2c[nH]c3cccc(c23)N(C)[C@@H](C(C)C)C(=O)N1 [(−)-14-O-butylindolactam V]
Induction of Epstein-Barr virus early antigen (Raji cells): no induction of the Epstein-Barr virus early antigen in Raji cells could be detected

COC[C@@H]1Cc2c[nH]c3cccc(c23)N(C)[C@@H](C(C)C)C(=O)N1 [(−)-14-O-methylindolactam V, 14-O-methyl-(9S,12S)-indolactam V]
Induction of Epstein-Barr virus early antigen (Raji cells): no induction of the Epstein-Barr virus early antigen in Raji cells could be detected
Inhibition of binding of [3H]PMA to a protein kinase C preparation [1]: did not measurably inhibit

CCCCCCOC[C@@H]1Cc2c[nH]c3cccc(c23)N(C)[C@@H](C(C)C)C(=O)N1 [(−)-O-hexylindolactam V, 14-O-hexyl-(9S,12S)-indolactam V]
Induction of Epstein-Barr virus early antigen (Raji cells): no induction of the Epstein-Barr virus early antigen in Raji cells could be detected

CC(C)=CCC/C(C)=C/COC[C@@H]1Cc2cn(C/C=C(\C)CCC=C(C)C)c3cccc(c23)N(C)[C@@H](C(C)C)C(=O)N1 [N^1,14-O-digeranyl-(9S,12S)-indolactam V, N^1,14-O-Digeranyl-(9S,12S)-indolactam V]
Ki (protein kinase C γ): 6500 nM
Ki (protein kinase C ε): 300 nM
Ki (protein kinase C δ): 900 nM
Ki (protein kinase Cα): 5900 nM
Persistence of inhibition of PMA induced ear inflammation ([2]; mouse ear, highest concentration (350,000 pmoles per 5 μL), observation to 48 hours): inhibition persisting for the duration of the experiment at the highest concentration
Inhibition of phorbol 12-myristate 13-acetate induced ear inflammation/erythema ([2]; mouse right ear, topical 5 μL acetone, 300 pmoles PMA, test compound 3,500 to 350,000 pmoles per 5 μL, observed 1 to 48 hours): Inhibition of the phorbol 12-myristate 13-acetate induced inflammation was observed at the medium and high concentrations
Ki (protein kinase C μ): 500 nM
Ki (human protein kinase Cθ): 900 nM
Ki (protein kinase C η): 500 nM

(−)-indolactam V
Induction of Epstein-Barr virus early antigen (Raji cells): very active
Inhibition of binding of [3H]PMA to a protein kinase C preparation [1]: very active
